Test results taken from ChEMBL document CHEMBL3885861, “Open TG-GATES”.

Organism: Rattus norvegicus
Assay: Open TG-GATES - Regimen: Daily Repeat
Type: toxicity, organism-based, Sprague-Dawley
Design: regimen Daily Repeat, gender Male, age 6 weeks
Settings: in vivo, po, 100 mg/kg, route gavage, dose level Low; for APTT / Bas / Eos / Fbg / Hb / Ht / Lym / MCH / MCHC / MCV / Mono / Neu / PT / Plat / RBC / Ret / WBC: tissue Blood; for KIDNEY_L / KIDNEY_R / KIDNEY_TOTAL: tissue Kidney; for LIVER: tissue Liver; for A/G / ALP / ALT / AST / BUN / CRE / Ca / Cl / DBIL / GLC / IP / K / LDH / Na / PL / RALB / TBIL / TC / TG / TP / gamma-GTP: tissue Plasma

SMILES: CCOc1ccc(NC(=O)CC(C)O)cc1 (configuration not stated) [BUCETIN]
- TERMINAL_BW (72 h, time 3 day): 249.8 g
- APTT (72 h, time 3 day): 17.5 s
- Bas (72 h, time 3 day): 0%
- Eos (72 h, time 3 day): 0.8%
- Fbg (72 h, time 3 day): 309.6 mg/dL
- Hb (72 h, time 3 day): 13.8 g/dL
- Ht (72 h, time 3 day): 41.5%
- Lym (72 h, time 3 day): 76.4%
- MCH (72 h, time 3 day): 21.2 pg
- MCHC (72 h, time 3 day): 33.2%
- MCV (72 h, time 3 day): 63.9 fL
- Mono (72 h, time 3 day): 3.4%
- Neu (72 h, time 3 day): 18.8%
- PT (72 h, time 3 day): 14.1 s
- Plat (72 h, time 3 day): 126.2 x10_4/uL
- RBC (72 h, time 3 day): 650.6 x10_4/ul
- Ret (72 h, time 3 day): 6.9%
- WBC (72 h, time 3 day): 79.2 x10_2/uL
- KIDNEY_L (72 h, time 3 day): 1 g
- KIDNEY_R (72 h, time 3 day): 1.1 g
- KIDNEY_TOTAL (72 h, time 3 day): 2.1 g
- LIVER (72 h, time 3 day): 12.1 g
- A/G (72 h, time 3 day): 0.9
- ALP (72 h, time 3 day): 1621.2 IU/L
- ALT (72 h, time 3 day): 35.2 IU/L
- AST (72 h, time 3 day): 62.4 IU/L
- BUN (72 h, time 3 day): 14.4 mg/dL
- CRE (72 h, time 3 day): 0.2 mg/dL
- Ca (72 h, time 3 day): 11 mg/dL
- Cl (72 h, time 3 day): 105.6 meq/L
- DBIL (72 h, time 3 day): 0.02 mg/dL
- GLC (72 h, time 3 day): 188.4 mg/dL
- IP (72 h, time 3 day): 7.6 mg/dL
- K (72 h, time 3 day): 4.2 meq/L
- LDH (72 h, time 3 day): 76.6 IU/L
- Na (72 h, time 3 day): 143 meq/L
- PL (72 h, time 3 day): 163.8 mg/dL
- RALB (72 h, time 3 day): 2.7 g/dL
- TBIL (72 h, time 3 day): 0.044 mg/dL
- TC (72 h, time 3 day): 82 mg/dL
- TG (72 h, time 3 day): 116.4 mg/dL
- TP (72 h, time 3 day): 5.9 g/dL
- gamma-GTP (72 h, time 3 day): 1 IU/L
- TERMINAL_BW ([…], time 7 day): 303 g
- TERMINAL_BW ([…], time 14 day): 338.2 g
- TERMINAL_BW ([…], time 28 day): 405.9 g
- APTT ([…], time 7 day): 17.7 s
- Bas ([…], time 7 day): 0%
- Eos ([…], time 7 day): 0.8%
- Fbg ([…], time 7 day): 276.6 mg/dL
- Hb ([…], time 7 day): 13.4 g/dL
- Ht ([…], time 7 day): 40.1%
- Lym ([…], time 7 day): 77.8%
- MCH ([…], time 7 day): 20.5 pg
- MCHC ([…], time 7 day): 33.5%
- MCV ([…], time 7 day): 61.2 fL
- Mono ([…], time 7 day): 2.8%
- Neu ([…], time 7 day): 17.6%
- PT ([…], time 7 day): 14 s
- Plat ([…], time 7 day): 121.8 x10_4/uL
- RBC ([…], time 7 day): 655.4 x10_4/ul
- Ret ([…], time 7 day): 5.8%
- WBC ([…], time 7 day): 116.6 x10_2/uL
- APTT ([…], time 14 day): 19.2 s
- Bas ([…], time 14 day): 0%
- Eos ([…], time 14 day): 0.8%
- Fbg ([…], time 14 day): 287.8 mg/dL
- Hb ([…], time 14 day): 14.6 g/dL
- Ht ([…], time 14 day): 43.2%
- Lym ([…], time 14 day): 74.6%
- MCH ([…], time 14 day): 20.1 pg
- MCHC ([…], time 14 day): 33.9%
- MCV ([…], time 14 day): 59.3 fL
- Mono ([…], time 14 day): 2.4%
- Neu ([…], time 14 day): 21.4%
- PT ([…], time 14 day): 13.9 s
- Plat ([…], time 14 day): 116.5 x10_4/uL
- RBC ([…], time 14 day): 729.2 x10_4/ul
- Ret ([…], time 14 day): 4.1%
- WBC ([…], time 14 day): 86.9 x10_2/uL
- APTT ([…], time 28 day): 17.9 s
- Bas ([…], time 28 day): 0.2%
- Eos ([…], time 28 day): 1%
- Fbg ([…], time 28 day): 280.4 mg/dL
- Hb ([…], time 28 day): 15.6 g/dL
- Ht ([…], time 28 day): 44.9%
- Lym ([…], time 28 day): 81%
- MCH ([…], time 28 day): 19.5 pg
- MCHC ([…], time 28 day): 34.9%
- MCV ([…], time 28 day): 55.9 fL
- Mono ([…], time 28 day): 2%
- Neu ([…], time 28 day): 15%
- PT ([…], time 28 day): 14.1 s
- Plat ([…], time 28 day): 114.4 x10_4/uL
- RBC ([…], time 28 day): 802.8 x10_4/ul
- Ret ([…], time 28 day): 2.5%
- WBC ([…], time 28 day): 132 x10_2/uL
- KIDNEY_L ([…], time 7 day): 1.3 g
- KIDNEY_R ([…], time 7 day): 1.3 g
- KIDNEY_TOTAL ([…], time 7 day): 2.5 g
- KIDNEY_L ([…], time 14 day): 1.3 g
- KIDNEY_R ([…], time 14 day): 1.2 g
- KIDNEY_TOTAL ([…], time 14 day): 2.5 g
- KIDNEY_L ([…], time 28 day): 1.4 g
- KIDNEY_R ([…], time 28 day): 1.4 g
- KIDNEY_TOTAL ([…], time 28 day): 2.9 g
- LIVER ([…], time 7 day): 14.8 g
- LIVER ([…], time 14 day): 14.9 g
- LIVER ([…], time 28 day): 16.3 g
- A/G ([…], time 7 day): 0.8
- ALP ([…], time 7 day): 1437.2 IU/L
- ALT ([…], time 7 day): 42.8 IU/L
- AST ([…], time 7 day): 69.6 IU/L
- BUN ([…], time 7 day): 15.8 mg/dL
- CRE ([…], time 7 day): 0.2 mg/dL
- Ca ([…], time 7 day): 11 mg/dL
- Cl ([…], time 7 day): 105 meq/L
- DBIL ([…], time 7 day): 0.022 mg/dL
- GLC ([…], time 7 day): 188.4 mg/dL
- IP ([…], time 7 day): 7.3 mg/dL
- K ([…], time 7 day): 4.2 meq/L
- LDH ([…], time 7 day): 103.8 IU/L
- Na ([…], time 7 day): 144.4 meq/L
- PL ([…], time 7 day): 172.8 mg/dL
- RALB ([…], time 7 day): 2.7 g/dL
- TBIL ([…], time 7 day): 0.04 mg/dL
- TC ([…], time 7 day): 80.6 mg/dL
- TG ([…], time 7 day): 143 mg/dL
- TP ([…], time 7 day): 6 g/dL
- gamma-GTP ([…], time 7 day): 1.2 IU/L
- A/G ([…], time 14 day): 0.8
- ALP ([…], time 14 day): 1590.2 IU/L
- ALT ([…], time 14 day): 34.4 IU/L
- AST ([…], time 14 day): 62.6 IU/L
- BUN ([…], time 14 day): 14.6 mg/dL
- CRE ([…], time 14 day): 0.2 mg/dL
- Ca ([…], time 14 day): 11.1 mg/dL
- Cl ([…], time 14 day): 105.8 meq/L
- DBIL ([…], time 14 day): 0.02 mg/dL
- GLC ([…], time 14 day): 191 mg/dL
- IP ([…], time 14 day): 7.4 mg/dL
- K ([…], time 14 day): 3.8 meq/L
- LDH ([…], time 14 day): 77.4 IU/L
- Na ([…], time 14 day): 145.2 meq/L
- PL ([…], time 14 day): 159.2 mg/dL
- RALB ([…], time 14 day): 2.8 g/dL
- TBIL ([…], time 14 day): 0.06 mg/dL
- TC ([…], time 14 day): 71.2 mg/dL
- TG ([…], time 14 day): 145 mg/dL
- TP ([…], time 14 day): 6.1 g/dL
- gamma-GTP ([…], time 14 day): 1.2 IU/L
- A/G ([…], time 28 day): 0.8
- ALP ([…], time 28 day): 1115.2 IU/L
- ALT ([…], time 28 day): 32.6 IU/L
- AST ([…], time 28 day): 64.6 IU/L
- BUN ([…], time 28 day): 15.8 mg/dL
- CRE ([…], time 28 day): 0.3 mg/dL
- Ca ([…], time 28 day): 11 mg/dL
- Cl ([…], time 28 day): 104.8 meq/L
- DBIL ([…], time 28 day): 0.022 mg/dL
- GLC ([…], time 28 day): 188.6 mg/dL
- IP ([…], time 28 day): 5.9 mg/dL
- K ([…], time 28 day): 3.9 meq/L
- LDH ([…], time 28 day): 82.8 IU/L
- Na ([…], time 28 day): 145.2 meq/L
- PL ([…], time 28 day): 155 mg/dL
- RALB ([…], time 28 day): 2.9 g/dL
- TBIL ([…], time 28 day): 0.06 mg/dL
- TC ([…], time 28 day): 70.4 mg/dL
- TG ([…], time 28 day): 145 mg/dL
- TP ([…], time 28 day): 6.4 g/dL
- gamma-GTP ([…], time 28 day): 1.4 IU/L
